From PubChem BioAssay (NCI)
“And” between values parts separate entries of the source, which are not always exact repeats. Identical values can stand only once.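 Tested at 5 concentrations; 48 h exposure; 96-well plates; endpoints linearly interpolated, else capped at highest concentration. GI50 = concentration required for 50% inhibition of growth. TGI: total growth inhibition.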

Assays:
Experiment in all cases: DTP human tumour cell line panel, 48 h
RXF 393 renal = test system: RXF 393 renal
MCF7 breast = test system: MCF7 breast
HOP-92 NSCLC = test system: HOP-92 NSCLC
KM12 colon = test system: KM12 colon
TK-10 renal = test system: TK-10 renal
SF-268 CNS = test system: SF-268 CNS
T-47D breast = test system: T-47D breast
NCI-H522 lung = test system: NCI-H522 lung
CAKI-1 renal = test system: CAKI-1 renal
SK-MEL-2 melanoma = test system: SK-MEL-2 melanoma
HCC-2998 colon = test system: HCC-2998 colon
HOP-62 NSCLC = test system: HOP-62 NSCLC
MDA-MB-435 = test system: MDA-MB-435
IGROV1 ovarian = test system: IGROV1 ovarian
HL-60(TB) leukemia = test system: HL-60(TB) leukemia

CCOC(=O)[C@@]12C3C=CC(CC3)[C@]1(C(=O)c1ccccc1)C(=O)C(=O)N2c1ccccc1 (stereo partly drawn)
TGI (RXF 393 renal): > 100 µM
TGI (MCF7 breast): > 100 µM
TGI (HOP-92 NSCLC): > 100 µM
TGI (KM12 colon): > 100 µM
TGI (TK-10 renal): > 100 µM
TGI (SF-268 CNS): > 100 µM
TGI (T-47D breast): > 100 µM
TGI (NCI-H522 lung): > 100 µM
TGI (CAKI-1 renal): > 100 µM
TGI (SK-MEL-2 melanoma): > 100 µM
TGI (HCC-2998 colon): > 100 µM
TGI (HOP-62 NSCLC): > 100 µM
TGI (MDA-MB-435): > 100 µM

CNC(=O)N(CCC#N)CCCN(C(=O)NC)c1ccccc1
TGI (RXF 393 renal): > 100 µM
TGI (IGROV1 ovarian): > 100 µM
TGI (MCF7 breast): > 100 µM
TGI (HOP-92 NSCLC): > 100 µM
TGI (KM12 colon): > 100 µM
TGI (TK-10 renal): > 100 µM
TGI (T-47D breast): > 100 µM
TGI (NCI-H522 lung): > 100 µM
TGI (CAKI-1 renal): > 100 µM
TGI (SK-MEL-2 melanoma): > 100 µM
TGI (HCC-2998 colon): > 100 µM
TGI (HL-60(TB) leukemia): > 100 µM
TGI (HOP-62 NSCLC): > 100 µM
TGI (MDA-MB-435): > 100 µM

CC(=O)Nc1ccc(-c2nc3ccccc3s2)cc1I
TGI (RXF 393 renal): 37 µM
TGI (IGROV1 ovarian): 20 µM
TGI (MCF7 breast): > 59.5 µM
TGI (HOP-92 NSCLC): > 88.9 µM
TGI (KM12 colon): > 100 µM
TGI (SF-268 CNS): 97.4 µM
TGI (T-47D breast): > 93.2 µM
TGI (NCI-H522 lung): > 100 µM
TGI (CAKI-1 renal): > 100 µM
TGI (SK-MEL-2 melanoma): > 100 µM
TGI (HCC-2998 colon): > 100 µM
TGI (HL-60(TB) leukemia): > 100 µM
TGI (HOP-62 NSCLC): 39 µM
TGI (MDA-MB-435): > 100 µM

O=C(Nc1ccccc1)N(C1=NCC(CI)S1)c1ccc(F)cc1F (stereo not drawn)
TGI (RXF 393 renal): > 100 µM
TGI (IGROV1 ovarian): 52 µM
TGI (MCF7 breast): > 100 µM
TGI (HOP-92 NSCLC): 51.1 µM
TGI (KM12 colon): > 100 µM
TGI (TK-10 renal): > 100 µM
TGI (SF-268 CNS): > 100 µM
TGI (T-47D breast): > 100 µM
TGI (NCI-H522 lung): > 100 µM
TGI (CAKI-1 renal): 66.9 µM
TGI (SK-MEL-2 melanoma): > 100 µM
TGI (HCC-2998 colon): > 100 µM
TGI (HL-60(TB) leukemia): 48 µM
TGI (HOP-62 NSCLC): > 100 µM
TGI (MDA-MB-435): > 100 µM

C=C(C)[C@H]1C=C[C@@H](OC(=O)c2cccnc2)[C@@]23CO[C@@](C)([C@H](OC(=O)c4cccnc4)[C@@]4(OC(C)=O)C[C@H](C)[C@H](OCCC)[C@@H]4[C@H]2OC(C)=O)[C@H]13
TGI (RXF 393 renal): > 15 µM
TGI (IGROV1 ovarian): > 15 µM
TGI (MCF7 breast): > 15 µM
TGI (HOP-92 NSCLC): > 15 µM
TGI (KM12 colon): > 15 µM
TGI (TK-10 renal): > 15 µM
TGI (SF-268 CNS): > 15 µM
TGI (T-47D breast): > 15 µM
TGI (NCI-H522 lung): > 15 µM
TGI (CAKI-1 renal): > 15 µM
TGI (SK-MEL-2 melanoma): > 15 µM
TGI (HCC-2998 colon): > 15 µM
TGI (HL-60(TB) leukemia): 14.1 µM
TGI (HOP-62 NSCLC): > 15 µM
TGI (MDA-MB-435): > 15 µM

COc1ccc2[nH]cc([C@@H]3C4CCC(C4)[C@H]3NCc3cccc(CN[C@H]4C5CCC(C5)[C@@H]4c4c[nH]c5ccc(OC)cc45)c3)c2c1
TGI (RXF 393 renal): 3.1 µM and 2.79 µM
TGI (IGROV1 ovarian): 2.61 µM
GI50 (MCF7 breast): 0.805 µM
TGI (MCF7 breast): 2.25 µM and 2.86 µM
TGI (HOP-92 NSCLC): 2.6 µM and 2.59 µM
TGI (KM12 colon): 0.95 µM and 1.34 µM
TGI (TK-10 renal): 2.87 µM and 3.03 µM
GI50 (SF-268 CNS): 1.23 µM
TGI (SF-268 CNS): 2.52 µM and 2.93 µM
GI50 (T-47D breast): 1.33 µM
TGI (T-47D breast): 2.95 µM
TGI (NCI-H522 lung): 2.48 µM and 2.83 µM
TGI (CAKI-1 renal): 2.79 µM and 3.21 µM
TGI (SK-MEL-2 melanoma): 2.91 µM and 2.99 µM
TGI (HCC-2998 colon): 0.53 µM and 0.842 µM
TGI (HL-60(TB) leukemia): 0.453 µM and 0.503 µM
TGI (HOP-62 NSCLC): 2.89 µM and 2.97 µM
TGI (MDA-MB-435): 0.988 µM and 0.962 µM

Cc1oc2c(Cl)cc(O)c(Cl)c2c2cccc1-2
TGI (IGROV1 ovarian): 75.4 µM
TGI (MCF7 breast): > 100 µM
TGI (HOP-92 NSCLC): 52.1 µM
TGI (KM12 colon): 47.4 µM
TGI (TK-10 renal): > 100 µM
TGI (SF-268 CNS): > 100 µM
TGI (T-47D breast): 16.5 µM
TGI (NCI-H522 lung): 83.3 µM
TGI (CAKI-1 renal): > 100 µM
TGI (SK-MEL-2 melanoma): > 100 µM
TGI (HCC-2998 colon): > 100 µM
TGI (HL-60(TB) leukemia): > 100 µM
TGI (HOP-62 NSCLC): 66.5 µM
TGI (MDA-MB-435): 70 µM

CCCCCCOc1ccc(C(=O)NO)cc1
TGI (RXF 393 renal): 30.1 µM
TGI (IGROV1 ovarian): 23.2 µM
TGI (MCF7 breast): > 100 µM
TGI (HOP-92 NSCLC): 40 µM
TGI (KM12 colon): 27.6 µM
TGI (TK-10 renal): > 100 µM
TGI (SF-268 CNS): 28.7 µM
TGI (T-47D breast): 41.3 µM
TGI (NCI-H522 lung): 19.7 µM
TGI (CAKI-1 renal): 19.2 µM
TGI (SK-MEL-2 melanoma): 39 µM
TGI (HCC-2998 colon): 28.3 µM
TGI (HL-60(TB) leukemia): 14 µM
TGI (HOP-62 NSCLC): 38.4 µM
TGI (MDA-MB-435): 38.5 µM

c1ccc(-n2nc3ccc4nonc4c3n2)cc1
TGI (RXF 393 renal): > 100 µM
TGI (IGROV1 ovarian): > 100 µM
TGI (MCF7 breast): > 100 µM
TGI (HOP-92 NSCLC): > 100 µM
TGI (KM12 colon): > 100 µM
TGI (TK-10 renal): > 100 µM
TGI (SF-268 CNS): > 100 µM
TGI (T-47D breast): > 100 µM
TGI (CAKI-1 renal): > 100 µM
TGI (SK-MEL-2 melanoma): > 100 µM
TGI (HCC-2998 colon): > 100 µM
TGI (HL-60(TB) leukemia): > 100 µM
TGI (HOP-62 NSCLC): > 100 µM
TGI (MDA-MB-435): > 100 µM

O=c1[nH]nc(Cc2ccccc2)n1/N=C\c1ccccc1
TGI (RXF 393 renal): > 100 µM
TGI (IGROV1 ovarian): > 100 µM
TGI (MCF7 breast): > 100 µM
TGI (HOP-92 NSCLC): > 100 µM
TGI (KM12 colon): > 100 µM
TGI (TK-10 renal): > 100 µM
TGI (T-47D breast): > 100 µM
TGI (NCI-H522 lung): > 100 µM
TGI (CAKI-1 renal): > 100 µM
TGI (SK-MEL-2 melanoma): > 100 µM
TGI (HCC-2998 colon): > 100 µM
TGI (HL-60(TB) leukemia): > 100 µM
TGI (HOP-62 NSCLC): > 100 µM
TGI (MDA-MB-435): > 100 µM

CC1=CC[C@@]2(CO)[C@@H]([C@@H]1C)[C@H]1CC[C@@H]3[C@@]4(C)CC[C@H](O)C(C)(C)[C@@H]4CC[C@@]3(C)[C@]1(C)C[C@@H]2O
TGI (RXF 393 renal): 25.7 µM
TGI (IGROV1 ovarian): 82.3 µM
TGI (MCF7 breast): > 100 µM
TGI (HOP-92 NSCLC): 44 µM
TGI (KM12 colon): > 100 µM
TGI (TK-10 renal): 44.4 µM
TGI (SF-268 CNS): > 100 µM
TGI (T-47D breast): 75.1 µM
TGI (NCI-H522 lung): 42.8 µM
TGI (CAKI-1 renal): > 100 µM
TGI (HL-60(TB) leukemia): > 100 µM
TGI (HOP-62 NSCLC): 39.8 µM
TGI (MDA-MB-435): > 100 µM

CC(NC(=O)c1ccccc1)NC(=O)C(C)C(=O)Nc1ccccc1 (stereo not drawn)
TGI (RXF 393 renal): > 100 µM
TGI (IGROV1 ovarian): > 100 µM
TGI (MCF7 breast): > 100 µM
TGI (HOP-92 NSCLC): > 100 µM
TGI (KM12 colon): > 100 µM
TGI (TK-10 renal): > 100 µM
TGI (SF-268 CNS): > 100 µM
TGI (T-47D breast): > 100 µM
TGI (NCI-H522 lung): > 100 µM
TGI (CAKI-1 renal): > 100 µM
TGI (SK-MEL-2 melanoma): > 100 µM
TGI (HL-60(TB) leukemia): > 100 µM
TGI (MDA-MB-435): > 100 µM

COC(CC1(/C=C/O[Si](C(C)C)(C(C)C)C(C)C)C(=O)N(C)c2ccccc21)OC (stereo not drawn)
TGI (RXF 393 renal): > 100 µM
TGI (MCF7 breast): > 100 µM
TGI (HOP-92 NSCLC): > 100 µM
TGI (KM12 colon): > 100 µM
TGI (SF-268 CNS): > 100 µM
TGI (T-47D breast): > 100 µM
TGI (CAKI-1 renal): > 100 µM
TGI (SK-MEL-2 melanoma): > 100 µM
TGI (HCC-2998 colon): > 100 µM
TGI (HL-60(TB) leukemia): > 100 µM
TGI (HOP-62 NSCLC): > 100 µM
TGI (MDA-MB-435): > 100 µM

N#C/C(C(=O)Nc1ccc(Cl)cc1)=C(/N)N1CCCCC1
TGI (IGROV1 ovarian): > 100 µM
TGI (MCF7 breast): > 100 µM
TGI (HOP-92 NSCLC): > 100 µM
TGI (KM12 colon): > 100 µM
TGI (T-47D breast): > 100 µM
TGI (CAKI-1 renal): > 100 µM
TGI (SK-MEL-2 melanoma): > 100 µM
TGI (HCC-2998 colon): > 100 µM
TGI (HL-60(TB) leukemia): > 100 µM
TGI (HOP-62 NSCLC): > 100 µM
TGI (MDA-MB-435): > 100 µM

CN(C)S(=O)(=O)/N=C/c1cccc(/C=N/S(=O)(=O)N(C)C)c1
TGI (MCF7 breast): > 100 µM
TGI (HOP-92 NSCLC): > 100 µM
TGI (KM12 colon): > 100 µM
TGI (TK-10 renal): > 100 µM
TGI (SF-268 CNS): > 100 µM
TGI (T-47D breast): > 100 µM
TGI (CAKI-1 renal): > 100 µM
TGI (HCC-2998 colon): > 100 µM
TGI (HL-60(TB) leukemia): > 100 µM
TGI (HOP-62 NSCLC): > 100 µM
TGI (MDA-MB-435): > 100 µM

CCOC(=O)[C@@]12C[C@](/C=C/OC)(O[Si](C)(C)C)[C@@]13c1cc(OC)c(OC)cc1CCN3C(=O)C2O (stereo partly drawn)
TGI (RXF 393 renal): > 100 µM
TGI (IGROV1 ovarian): > 100 µM
TGI (MCF7 breast): > 100 µM
TGI (HOP-92 NSCLC): > 100 µM
TGI (KM12 colon): > 100 µM
TGI (TK-10 renal): > 100 µM
TGI (SF-268 CNS): > 100 µM
TGI (T-47D breast): > 100 µM
TGI (CAKI-1 renal): > 100 µM
TGI (SK-MEL-2 melanoma): > 100 µM
TGI (HOP-62 NSCLC): > 100 µM
TGI (MDA-MB-435): > 100 µM
